How the values were obtained:
[1] = Dynamic vapor sorption (DVS) moisture sorption isotherm; format: physicochemical
Protocol: Sorption isotherms were obtained using a SMS DVS Intrinsic moisture sorption analyser, controlled by DVS Intrinsic Control software. The sample temperature was maintained at 25° C. by the instrument controls. The humidity was controlled by mixing streams of dry and wet nitrogen, with a total flow rate of 200 ml/min. The relative humidity was measured by a calibrated Rotronic probe (dynamic range of 1.0-100% RH), located near the sample. The weight change, (mass relaxation) of the sample as a function of % RH was constantly monitored by a microbalance (accuracy±0.005 mg). Typically, 5 to 30 mg of sample was placed in a tared mesh stainless steel basket under ambient conditions. The sample was loaded and unloaded at 40% RH and 25° C. (typical room conditions). A moisture sorption isotherm was performed as outlined below (2 scans per complete cycle). The standard isotherm was performed at 25° C. at 10% RH intervals over a 0-90% RH range. Typically, a double cycle (4 scans) was carried out. Data analysis was carried out within Microsoft Excel using the DVS Analysis Suite. [table] The sample was recovered after completion of the isotherm and re-analysed by XRPD.

[2] = Thermogravimetric analysis (TGA); format: physicochemical; settings: from ambient temperature to about 200° C., followed by sample degradation
Protocol: TGA data were collected on a TA Instruments Q500 TGA, equipped with a 16 position auto-sampler. Typically, 5-10 mg of each sample was loaded onto a pre-tared aluminum DSC pan and heated to 10° C./min from ambient temperature to 350° C. A nitrogen purge at 60 ml/min was maintained over the sample. The instrument control software was Advantage for Q Series and Thermal Advantage and the data were analysed using Universal Analysis or TRIOS

- XRPD pattern after the DVS cycle compared with XRPD prior to the DVS cycle (form stability) ([1]; after DVS cycle 0-90% RH): identical
- DVS weight gain ([1]; at 90% RH, 25° C., two DVS cycles): about 0.16%
- moisture uptake behaviour in DVS ([1]; over 0-90% RH range): gradual reversible uptake
- TGA weight change on heating [2]: No weight change
SMILES: O=C(/C=C\n1cnc(-c2cc(C(F)(F)F)cc(C(F)(F)F)c2)n1)NNc1cnccn1 [crystalline Form ZL, (Z)-3-(3-(3,5-bis(trifluoromethyl)phenyl)-1H-1,2,4-triazol-1-yl)-N′-(pyrazin-2-yl) acrylohydrazide]

Source: patent US12709609B2, “Crystalline form of Selinexor” (Karyopharm Therapeutics Inc., priority 2020, dated 2026)
